Experimental data reported in ChEMBL document CHEMBL2380246, “Structure-activity relationships of hybrid annonaceous acetogenins: powerful growth inhibitory effects of their connecting groups between heterocycle and hydrophobic carbon chain bearing THF ring on human cancer cell lines” (2013).

Key:
Type in all cases: functional
[1] = test system: PC-3; test: Growth inhibition of human PC3 cells after 48 hrs by sulforhodamine B assay; settings: PC-3, 48 h
[2] = test system: DU-145; test: Growth inhibition of human DU145 cells after 48 hrs by sulforhodamine B assay; settings: DU-145, 48 h
[3] = test system: MKN-74; test: Growth inhibition of human MKN74 cells after 48 hrs by sulforhodamine B assay; settings: MKN-74, 48 h
[4] = test system: MKN-45; test: Growth inhibition of human MKN45 cells after 48 hrs by sulforhodamine B assay; settings: MKN-45, 48 h
[5] = test system: MKN-28; test: Growth inhibition of human MKN28 cells after 48 hrs by sulforhodamine B assay; settings: MKN-28, 48 h
[6] = test system: MKN-7; test: Growth inhibition of human MKN7 cells after 48 hrs by sulforhodamine B assay; settings: MKN-7, 48 h
[7] = Growth inhibition of human MKN1 cells after 48 hrs by sulforhodamine B assay; settings: MKN-1, 48 h
[8] = test system: St-4; test: Growth inhibition of human St-4 cells after 48 hrs by sulforhodamine B assay; settings: St-4, 48 h
[9] = test system: ACHN; test: Growth inhibition of human ACHN cells after 48 hrs by sulforhodamine B assay
[10] = Growth inhibition of human RXF631L cells after 48 hrs by sulforhodamine B assay; settings: RXF 631, 48 h
[11] = test system: SK-OV-3; test: Growth inhibition of human SKOV3 cells after 48 hrs by sulforhodamine B assay; settings: SK-OV-3, 48 h
[12] = test system: OVCAR-5; test: Growth inhibition of human OVCAR5 cells after 48 hrs by sulforhodamine B assay; settings: OVCAR-5, 48 h
[13] = test system: OVCAR-8; test: Growth inhibition of human OVCAR8 cells after 48 hrs by sulforhodamine B assay; settings: OVCAR-8, 48 h
[14] = test system: OVCAR-4; test: Growth inhibition of human OVCAR4 cells after 48 hrs by sulforhodamine B assay; settings: OVCAR-4, 48 h
[15] = test system: OVCAR-3; test: Growth inhibition of human OVCAR3 cells after 48 hrs by sulforhodamine B assay; settings: OVCAR-3, 48 h
[16] = test system: LOX IMVI; test: Growth inhibition of human LOXIMVI cells after 48 hrs by sulforhodamine B assay
[17] = test system: DMS-114; test: Growth inhibition of human DMS114 cells after 48 hrs by sulforhodamine B assay; settings: DMS-114, 48 h
[18] = test system: DMS-273; test: Growth inhibition of human DMS273 cells after 48 hrs by sulforhodamine B assay; settings: DMS-273, 48 h
[19] = test system: A549; test: Growth inhibition of human A549 cells after 48 hrs by sulforhodamine B assay; settings: A549, 48 h
[20] = test system: NCI-H460; test: Growth inhibition of human NCI-H460 cells after 48 hrs by sulforhodamine B assay; settings: NCI-H460, 48 h
[21] = test system: NCI-H522; test: Growth inhibition of human NCI-H522 cells after 48 hrs by sulforhodamine B assay; settings: NCI-H522, 48 h
[22] = test system: NCI-H226; test: Growth inhibition of human NCI-H226 cells after 48 hrs by sulforhodamine B assay; settings: NCI-H226, 48 h
[23] = test system: NCI-H23; test: Growth inhibition of human NCI-H23 cells after 48 hrs by sulforhodamine B assay; settings: NCI-H23, 48 h
[24] = test system: HCT-116; test: Growth inhibition of human HCT116 cells after 48 hrs by sulforhodamine B assay; settings: HCT-116, 48 h
[25] = test system: HCT-15; test: Growth inhibition of human HCT15 cells after 48 hrs by sulforhodamine B assay; settings: HCT-15, 48 h
[26] = test system: HT-29; test: Growth inhibition of human HT-29 cells after 48 hrs by sulforhodamine B assay; settings: HT-29, 48 h
[27] = test system: KM12; test: Growth inhibition of human KM12 cells after 48 hrs by sulforhodamine B assay; settings: KM12, 48 h
[28] = Growth inhibition of human HCC2998 cells after 48 hrs by sulforhodamine B assay; settings: HCC 2998, 48 h
[29] = test system: SNB-78; test: Growth inhibition of human SNB78 cells after 48 hrs by sulforhodamine B assay; settings: SNB-78, 48 h
[30] = test system: SNB-75; test: Growth inhibition of human SNB75 cells after 48 hrs by sulforhodamine B assay; settings: SNB-75, 48 h
[31] = test system: SF-539; test: Growth inhibition of human SF539 cells after 48 hrs by sulforhodamine B assay; settings: SF-539, 48 h
[32] = test system: SF-295; test: Growth inhibition of human SF295 cells after 48 hrs by sulforhodamine B assay; settings: SF-295, 48 h
[33] = test system: SF-268; test: Growth inhibition of human SF268 cells after 48 hrs by sulforhodamine B assay; settings: SF-268, 48 h
[34] = test system: U-251; test: Growth inhibition of human U251 cells after 48 hrs by sulforhodamine B assay; settings: U-251, 48 h
[35] = test system: MDA-MB-231; test: Growth inhibition of human MDA-MB-231 cells after 48 hrs by sulforhodamine B assay; settings: MDA-MB-231, 48 h
[36] = test system: MCF7; test: Growth inhibition of human MCF7 cells after 48 hrs by sulforhodamine B assay; settings: MCF7, 48 h
[37] = Growth inhibition of human HBC5 cells after 48 hrs by sulforhodamine B assay; settings: HBC5, 48 h
[38] = Growth inhibition of human HBC4 cells after 48 hrs by sulforhodamine B assay; settings: HBC4, 48 h
[39] = Growth inhibition of human BSY1 cells after 48 hrs by sulforhodamine B assay; settings: BSY-1, 48 h

Structure (SMILES): CCCCCCCCCCCC[C@@H](O)[C@H]1CC[C@H]([C@H](O)CCCCCCCCCCCCc2ccnn2C)O1
- GI50 [1]: > 100 µM
- GI50 [2]: > 100 µM
- GI50 [3]: 22.9 µM
- GI50 [4]: > 100 µM
- GI50 [5]: 4.37 µM
- GI50 [6]: 6.17 µM
- GI50 [7]: > 100 µM
- GI50 [8]: 64.6 µM
- GI50 [9]: 87.1 µM
- GI50 [10]: > 100 µM
- GI50 [11]: 77.6 µM
- GI50 [12]: > 100 µM
- GI50 [13]: > 100 µM
- GI50 [14]: 37.2 µM
- GI50 [15]: > 100 µM
- GI50 [16]: > 100 µM
- GI50 [17]: 0.55 µM
- GI50 [18]: 49 µM
- GI50 [19]: 30.9 µM
- GI50 [20]: > 100 µM
- GI50 [21]: 3.8 µM
- GI50 [22]: 52.5 µM
- GI50 [23]: 0.912 µM
- GI50 [24]: 9.12 µM
- GI50 [25]: > 100 µM
- GI50 [26]: 75.9 µM
- GI50 [27]: 70.8 µM
- GI50 [28]: 79.4 µM
- GI50 [29]: > 100 µM
- GI50 [30]: > 100 µM
- GI50 [31]: 37.2 µM
- GI50 [32]: 24 µM
- GI50 [33]: > 100 µM
- GI50 [34]: > 100 µM
- GI50 [35]: 32.4 µM
- GI50 [36]: 26.9 µM
- GI50 [37]: 69.2 µM
- GI50 [38]: > 100 µM
- GI50 [39]: 32.4 µM
